According to patent US20260109715A1, “IMIDAZOPYRIDINE DERIVATIVES WITH BICYCLIC STRUCTURE” (PUBLIC UNIVERSITY CORPORATION YOKOHAMA CITY UNIVERSITY, priority 2022, published 2026):
Where two headings read alike, the source gives them in different places.

Tests used:
[1] = target: human SMG1 enzyme (Homo sapiens, UniProt Q96Q15); experiment: Measurement of SMG1 kinase activity (ADP-Glo Kinase Assay); type: biochemical; settings: purified human SMG1 enzyme 5 nM, Upf1 peptide substrate, ATP 4 μM; qAC50 synonymous with IC50; read-out: Test Example 1 ADP-Glo IC50
Method in brief: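 Purified human SMG1 (5 nM) preincubated with compound (1% DMSO) 15 min at room temperature in HEPES pH 7.5 buffer with MnCl2, then reacted 60 min with Upf1 peptide (8 μg/mL) and 4 μM ATP. ADP formed measured by ADP-Glo luminescence; IC50 by 4-parameter logistic fit, normalised to DMSO (0%) and enzyme-free (−100%) wells.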

[2] = tested on: Snhg1 transcript in tumor tissues of mice subcutaneously implanted with EMT6 murine breast cancer cell line; experiment: Evaluation of NMD inhibitory activity in vivo (Snhg1 transcript in EMT6 tumor tissue after oral administration); settings: 6 hours after administration, BALB/c mice
Experimental: The NMD inhibitory activity of a compound of the present invention or a pharmaceutically acceptable salt thereof in vivo can be measured, for example, by the method described below. Using mice subcutaneously implanted with EMT6 murine breast cancer cell line, tumor tissues 6 hours after oral administration of a test substance are excised, and the increase in Snhg1 transcript is quantified as an indicator of NMD inhibition in the tumor, in the same manner as in the in vitro method.
In this test, NMD inhibitory activity in tumor tissues was evaluated when a test substance was orally administered to mice subcutaneously implanted with EMT6 murine breast cancer cell line. As an indicator of NMD inhibitory activity, the increase in the transcript of Snhg1, an NMD target gene, was quantified. First, BALB/c mice were subcutaneously implanted with EMT6 cells (ATCC), and engraftment was confirmed 7 days later. Six hours after administration of the test substance, mice were euthanized, and the collected tumor tissues were cryopreserved. RNA was extracted from the tumor tissues using the illustra RNAspin Mini RNA Isolation kit (GE Healthcare Life Sciences). After synthesizing cDNA using the High-Capacity cDNA Reverse Transcription Kits (Applied Biosystems, 4368813), the cDNA was mixed with PrimeTime Gene Expression Master Mix (Integrated DNA Technologies) and various probes, and gene expression was quantified by QuantStudio 6 Flex (Thermo Fisher Scientific Inc.). For the probe for the Snhg1 gene, which is an NMD target, Mm.PT.58.44039547 (FAM) (Integrated DNA Technologies) was used, and for the probe for the Gapdh gene, which is an endogenous control, Mm99999915_g2 (VIC-PL) (Applied Biosystems) was used. The relative quantification of Snhg1 transcripts in each sample was calculated by the ΔΔCT method using Gapdh as an endogenous control, and the expression level of Snhg1 in each test substance administration group was calculated by setting the expression level of the Vehicle group (0.5% methylcellulose administration group) to 1.

[3] = tested on: Snhg1 transcript (NMD target gene) in EMT6 murine breast cancer cell line; experiment: Measurement of NMD inhibitory activity in cells (increase in Snhg1 transcript, real-time PCR); design: species or system mouse; settings: 6 hours treatment, concentration giving 1/2 of maximum Snhg1 fold change of positive control, read-out: Test Example 2 Cell-based Snhg1 EC50
Method in brief: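 EMT6 cells treated with serially diluted compound (2% DMSO final) for 6 h; Snhg1 transcript quantified by real-time PCR (ΔΔCT, Tbp endogenous control, untreated wells set to 1). EC50 taken as concentration giving half the maximum fold change of a known NMD inhibitor positive control.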

Sequence of human SMG1 enzyme (Q96Q15 whole entry): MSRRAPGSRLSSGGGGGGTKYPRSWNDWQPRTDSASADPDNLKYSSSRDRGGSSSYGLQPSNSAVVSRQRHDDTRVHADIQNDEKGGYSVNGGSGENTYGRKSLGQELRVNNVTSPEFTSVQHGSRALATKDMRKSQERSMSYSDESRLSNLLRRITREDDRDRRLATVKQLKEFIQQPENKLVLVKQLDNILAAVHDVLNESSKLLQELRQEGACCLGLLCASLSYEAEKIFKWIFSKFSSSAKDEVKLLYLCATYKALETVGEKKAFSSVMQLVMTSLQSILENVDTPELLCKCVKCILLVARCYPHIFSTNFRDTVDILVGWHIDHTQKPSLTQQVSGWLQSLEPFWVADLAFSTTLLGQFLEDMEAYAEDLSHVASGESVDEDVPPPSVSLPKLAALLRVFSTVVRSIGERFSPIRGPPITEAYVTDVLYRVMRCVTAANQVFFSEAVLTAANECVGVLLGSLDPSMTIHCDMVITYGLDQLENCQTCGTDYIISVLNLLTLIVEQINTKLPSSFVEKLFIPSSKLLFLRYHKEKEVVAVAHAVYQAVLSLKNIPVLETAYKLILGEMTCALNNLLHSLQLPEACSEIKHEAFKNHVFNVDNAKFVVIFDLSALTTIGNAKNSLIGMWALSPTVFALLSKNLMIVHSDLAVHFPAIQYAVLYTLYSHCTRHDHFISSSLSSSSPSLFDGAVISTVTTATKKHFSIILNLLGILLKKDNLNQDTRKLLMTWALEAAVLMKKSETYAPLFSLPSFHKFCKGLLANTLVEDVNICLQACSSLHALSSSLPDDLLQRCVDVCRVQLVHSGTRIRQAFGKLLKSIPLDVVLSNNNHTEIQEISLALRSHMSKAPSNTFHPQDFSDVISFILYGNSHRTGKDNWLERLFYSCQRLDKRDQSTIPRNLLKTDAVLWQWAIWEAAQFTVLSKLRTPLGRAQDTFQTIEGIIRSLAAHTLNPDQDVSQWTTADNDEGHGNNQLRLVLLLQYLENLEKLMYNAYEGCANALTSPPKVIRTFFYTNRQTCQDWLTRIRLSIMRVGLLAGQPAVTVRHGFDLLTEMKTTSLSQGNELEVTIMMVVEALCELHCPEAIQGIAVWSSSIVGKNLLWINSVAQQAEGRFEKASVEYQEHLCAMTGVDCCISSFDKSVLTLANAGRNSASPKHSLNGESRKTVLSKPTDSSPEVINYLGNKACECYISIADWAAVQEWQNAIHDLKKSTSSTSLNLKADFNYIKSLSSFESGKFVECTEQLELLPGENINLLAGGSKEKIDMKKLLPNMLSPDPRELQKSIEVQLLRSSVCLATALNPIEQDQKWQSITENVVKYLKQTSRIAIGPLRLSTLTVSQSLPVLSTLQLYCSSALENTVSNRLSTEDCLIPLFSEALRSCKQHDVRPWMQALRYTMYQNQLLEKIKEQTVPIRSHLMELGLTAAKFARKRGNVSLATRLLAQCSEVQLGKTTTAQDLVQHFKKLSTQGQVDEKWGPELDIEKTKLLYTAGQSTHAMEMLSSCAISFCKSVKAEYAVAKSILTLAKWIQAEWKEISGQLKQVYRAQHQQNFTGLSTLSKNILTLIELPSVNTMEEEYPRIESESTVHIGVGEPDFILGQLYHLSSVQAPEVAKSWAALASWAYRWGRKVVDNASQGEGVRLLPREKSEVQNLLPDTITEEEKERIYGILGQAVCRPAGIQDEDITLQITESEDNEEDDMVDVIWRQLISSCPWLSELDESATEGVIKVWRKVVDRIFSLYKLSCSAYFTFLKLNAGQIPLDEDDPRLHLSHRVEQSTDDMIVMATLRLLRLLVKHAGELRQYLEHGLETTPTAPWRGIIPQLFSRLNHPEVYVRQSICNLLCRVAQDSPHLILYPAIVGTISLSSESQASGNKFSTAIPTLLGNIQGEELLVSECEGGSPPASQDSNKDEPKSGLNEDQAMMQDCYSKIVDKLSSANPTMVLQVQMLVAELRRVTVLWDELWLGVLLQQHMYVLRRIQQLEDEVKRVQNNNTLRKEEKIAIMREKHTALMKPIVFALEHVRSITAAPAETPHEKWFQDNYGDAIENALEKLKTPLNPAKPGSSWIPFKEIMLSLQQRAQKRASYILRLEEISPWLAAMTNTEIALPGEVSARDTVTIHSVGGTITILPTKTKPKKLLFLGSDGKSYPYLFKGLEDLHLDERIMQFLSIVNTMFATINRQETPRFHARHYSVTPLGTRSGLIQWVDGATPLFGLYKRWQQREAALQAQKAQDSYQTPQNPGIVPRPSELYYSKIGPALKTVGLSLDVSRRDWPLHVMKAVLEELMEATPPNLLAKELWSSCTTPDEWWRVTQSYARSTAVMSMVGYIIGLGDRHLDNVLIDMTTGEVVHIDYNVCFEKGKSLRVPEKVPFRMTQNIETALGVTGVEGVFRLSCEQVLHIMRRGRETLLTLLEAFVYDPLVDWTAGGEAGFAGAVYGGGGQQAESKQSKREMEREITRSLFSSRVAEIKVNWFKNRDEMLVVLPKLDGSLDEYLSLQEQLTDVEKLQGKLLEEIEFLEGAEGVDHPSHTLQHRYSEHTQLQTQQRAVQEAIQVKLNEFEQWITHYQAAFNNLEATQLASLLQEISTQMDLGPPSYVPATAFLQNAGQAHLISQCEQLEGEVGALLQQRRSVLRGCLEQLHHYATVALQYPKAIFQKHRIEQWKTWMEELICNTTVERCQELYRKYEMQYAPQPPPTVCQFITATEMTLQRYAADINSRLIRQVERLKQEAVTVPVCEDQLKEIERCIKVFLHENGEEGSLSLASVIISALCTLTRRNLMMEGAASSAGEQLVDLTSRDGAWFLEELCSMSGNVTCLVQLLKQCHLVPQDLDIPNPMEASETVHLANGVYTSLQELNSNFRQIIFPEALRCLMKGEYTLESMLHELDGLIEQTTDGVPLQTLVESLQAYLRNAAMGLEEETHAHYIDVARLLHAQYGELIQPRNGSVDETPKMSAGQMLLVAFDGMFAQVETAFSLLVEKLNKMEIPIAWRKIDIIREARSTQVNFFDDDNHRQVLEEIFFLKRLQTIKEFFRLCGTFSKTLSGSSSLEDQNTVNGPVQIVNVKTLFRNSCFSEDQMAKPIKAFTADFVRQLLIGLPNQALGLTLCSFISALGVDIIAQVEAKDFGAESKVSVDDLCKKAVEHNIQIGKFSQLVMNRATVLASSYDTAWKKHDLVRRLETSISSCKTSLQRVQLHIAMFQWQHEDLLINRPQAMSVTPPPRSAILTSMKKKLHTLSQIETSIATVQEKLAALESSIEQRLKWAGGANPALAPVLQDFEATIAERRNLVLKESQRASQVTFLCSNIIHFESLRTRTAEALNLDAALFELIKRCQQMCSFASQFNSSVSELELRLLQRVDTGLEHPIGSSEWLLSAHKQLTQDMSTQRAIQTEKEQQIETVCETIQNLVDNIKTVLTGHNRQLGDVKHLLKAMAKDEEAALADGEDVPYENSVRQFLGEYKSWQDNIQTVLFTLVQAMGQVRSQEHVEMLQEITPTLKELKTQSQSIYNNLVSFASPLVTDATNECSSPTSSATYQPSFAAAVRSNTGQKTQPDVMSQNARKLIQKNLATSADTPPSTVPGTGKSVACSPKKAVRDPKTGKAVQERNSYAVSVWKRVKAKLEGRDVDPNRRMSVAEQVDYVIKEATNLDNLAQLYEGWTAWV

| Compound | IC50 [1] | EC50 ([3]; Mus musculus) | other results |
| --- | --- | --- | --- |
| 3-(6-chloro-4-methyl-1H-imidazo[4,5-c]pyridin-2-yl)-5-(2-fluoro-6-methoxyphenyl)-1,6-naphthyridin-2(1H)-one methanesulfonate [Example 130] | 1.6 nM | – | Snhg1 fold change ([2]; 10 mg/kg oral): 9.2; EC50 [3]: 11 nM |
| C[C@@H](Nc1nc(Cl)cc2[nH]c(-c3cc4c(N5CCC(N(C)C)CC5)nccc4[nH]c3=O)nc12)C(F)(F)F [Example 8, 3-(6-chloro-4-{[(2R)-1,1,1-trifluoropropan-2-yl]amino}-1H-imidazo[4,5-c]pyridin-2-yl)-5-[4-(dimethylamino)piperidin-1-yl]-1,6-naphthyridin-2(1H)-one] | 1.8 nM | 36 nM | Snhg1 fold change ([2]; 30 mg/kg oral): 4.1 |
| CC1(C)CC(O)(c2nc(Cl)cc3[nH]c(-c4cc5cnccc5[nH]c4=O)nc23)CCO1 (stereo not shown) [Example 19, 3-[6-chloro-4-(4-hydroxy-2,2-dimethyltetrahydro-2H-pyran-4-yl)-1H-imidazo[4,5-c]pyridin-2-yl]-1,6-naphthyridin-2(1H)-one] | 2.4 nM | 111 nM | Snhg1 fold change ([2]; 100 mg/kg oral): 7.5 |
| [2H]C([2H])([2H])Oc1ccccc1-c1nccc2[nH]c(=O)c(-c3nc4c(C)nc(Cl)cc4[nH]3)cc12 [Example 26, 3-(6-chloro-4-methyl-1H-imidazo[4,5-c]pyridin-2-yl)-5-{2-[(^2H3)methyloxy]phenyl}-1,6-naphthyridin-2(1H)-one] | 0.99 nM | 28 nM | Snhg1 fold change ([2]; 10 mg/kg oral): 12 |
| O=c1[nH]c2ccnc(-c3ccccc3Cl)c2cc1-c1nc2cnc(Cl)cc2[nH]1 [Example 28, 3-(6-chloro-1H-imidazo[4,5-c]pyridin-2-y1)-5-(2-chlorophenyl)-1,6-naphthyridin-2(1H)-one] | 2 nM | 78 nM | Snhg1 fold change ([2]; 25 mg/kg oral): 8.8 |
| Cc1nc(Cl)cc2[nH]c(-c3cc4c(-c5ccccc5Cl)nccc4[nH]c3=O)nc12 [Example 29, 3-(6-chloro-4-methyl-1H-imidazo[4,5-c]pyridin-2-y1)-5-(2-chlorophenyl)-1,6-naphthyridin-2(1H)-one] | 2 nM | 56 nM | Snhg1 fold change ([2]; 30 mg/kg oral): 4.6 |
| Cc1nc(Cl)cc2[nH]c(-c3cc4c(-c5c(F)cccc5Cl)nccc4[nH]c3=O)nc12 [Example 31, 5-(2-chloro-6-fluorophenyl)-3-(6-chloro-4-methyl-1H-imidazo[4,5-c]pyridin-2-y1)-1,6-naphthyridin-2(1H)-one] | 1.3 nM | 34 nM | Snhg1 fold change ([2]; 10 mg/kg oral): 5.5 |
| Cc1ccccc1-c1nccc2[nH]c(=O)c(-c3nc4cnc(Cl)cc4[nH]3)cc12 [Example 32, 3-(6-chloro-1H-imidazo[4,5-c]pyridin-2-y1)-5-(2-methylpheny1)-1,6-naphthyridin-2(1H)-one] | 2.4 nM | 77 nM | Snhg1 fold change ([2]; 50 mg/kg oral): 12 |
| COc1ccccc1-c1nccc2[nH]c(=O)c(-c3nc4cnc(Cl)cc4[nH]3)cc12 [Example 34, 3-(6-chloro-1H-imidazo[4,5-c]pyridin-2-y1)-5-(2-methoxyphenyl)-1,6-naphthyridin-2(1H)-one] | 2.2 nM | 25 nM | Snhg1 fold change ([2]; 25 mg/kg oral): 6.2 |
| COc1cccc(F)c1-c1nccc2[nH]c(=O)c(-c3nc4cnc(Cl)cc4[nH]3)cc12 [Example 35, 3-(6-chloro-1H-imidazo[4,5-c]pyridin-2-y1)-5-(2-fluoro-6-methoxyphenyl)-1,6-naphthyridin-2(1H)-one] | 1.4 nM | 40 nM | Snhg1 fold change ([2]; 10 mg/kg oral): 4.6 |
| CCc1nc(Cl)cc2[nH]c(-c3cc4c(-c5cc(F)ccc5OC)nccc4[nH]c3=O)nc12 [Example 36, 3-(6-chloro-4-ethyl-1H-imidazo[4,5-c]pyridin-2-yl)-5-(5-fluoro-2-methoxyphenyl)-1,6-naphthyridin-2(1H)-one] | 1.2 nM | 11 nM | Snhg1 fold change ([2]; 10 mg/kg oral): 7.5 |
| [2H]C([2H])([2H])Oc1ccccc1-c1nccc2[nH]c(=O)c(-c3nc4c(CC)nc(Cl)cc4[nH]3)cc12 [Example 37, 3-(6-chloro-4-ethyl-1H-imidazo[4,5-c]pyridin-2-yl)-5-{2-[(^2H3)methyloxy]phenyl}-1,6-naphthyridin-2(1H)-one] | 0.36 nM | 9.4 nM | Snhg1 fold change ([2]; 10 mg/kg oral): 8.4 |
| [2H]C([2H])([2H])Oc1ccccc1-c1nccc2[nH]c(=O)c(-c3nc4c(C(C)C)nc(Cl)cc4[nH]3)cc12 [Example 38, 3-[6-chloro-4-(propan-2-yl)-1H-imidazo[4,5-c]pyridin-2-yl]-5-{2-[(^2H3)methyloxy]phenyl}-1,6-naphthyridin-2(1H)-one] | 1.7 nM | 10 nM | Snhg1 fold change ([2]; 30 mg/kg oral): 9.2 |
| O=C1CCn2cc(cn2)-c2nccc3[nH]c(=O)c(cc23)-c2nc3c(nc(Cl)cc3[nH]2)N2CCCN1CC2 [Example 116, 7-chloro-3,8,10,14,18,19,23,27,34-nonaazaheptacyclo[20.6.2.2^10,14.1^2,5.1^18,21.0^4,9.0^26,30]tetratriacont-1(29),2,4,6,8,19,21(31),22(30),23,25-decaen-15,28-dione] | 1.2 nM | 38 nM | – |
| C[C@@H]1C[C@@H](F)CN1c1nc(Cl)cc2[nH]c(-c3cc4c(C5CCOCC5)nccc4[nH]c3=O)nc12 [Example 119, 3-{6-chloro-4-[(2R,4R)-4-fluoro-2-methylpyrrolidin-1-yl]-1H-imidazo[4,5-c]pyridin-2-yl}-5-(tetrahydro-2H-pyran-4-yl)-1,6-naphthyridin-2(1H)-one methanesulfonate] | 3.4 nM | 24 nM | – |
| C[C@@H]1C[C@H](O)CN1c1nc(Cl)cc2[nH]c(-c3cc4cnccc4[nH]c3=O)nc12 [Example 120, 3-{6-chloro-4-[(2R,4S)-4-hydroxy-2-methylpyrrolidin-1-yl]-1H-imidazo[4,5-c]pyridin-2-yl}-1,6-naphthyridin-2(1H)-one methanesulfonate] | 0.96 nM | 37 nM | – |
| Cc1nccc2[nH]c(=O)c(-c3nc4c(N5C[C@H](O)C[C@H]5C)nc(Cl)cc4[nH]3)cc12 [Example 121, 3-{6-chloro-4-[(2R,4R)-4-hydroxy-2-methylpyrrolidin-1-yl]-1H-imidazo[4,5-c]pyridin-2-yl}-5-methyl-1,6-naphthyridin-2(1H)-one methanesulfonate] | 1.4 nM | 46 nM | – |
| CCc1nccc2[nH]c(=O)c(-c3nc4c(N5CC[C@H](O)[C@H]5C)nc(Cl)cc4[nH]3)cc12 [Example 122, 3-{6-chloro-4-[(2R,3S)-3-hydroxy-2-methylpyrrolidin-1-yl]-1H-imidazo[4,5-c]pyridin-2-yl}-5-ethyl-1,6-naphthyridin-2(1H)-one methanesulfonate] | 2.2 nM | 28 nM | – |
| CS(=O)(=O)O.[2H]C([2H])([2H])Oc1ccccc1-c1nccc2[nH]c(=O)c(-c3nc4c(N[C@H]5CCOC5)nc(Cl)cc4[nH]3)cc12 [Example 134, 3-{6-chloro-4-[(3S)-tetrahydrofuran-3-ylamino]-1H-imidazo[4,5-c]pyridin-2-yl}-5-(2-[(2H3)methyloxy]phenyl)-1,6-naphthyridin-2(1H)-one methanesulfonate] | 1.1 nM | 18 nM | – |
| CCc1nc(Cl)cc2[nH]c(-c3cc4c(-c5ccn(C(F)F)n5)nccc4[nH]c3=O)nc12 [Example 150, 3-(6-chloro-4-ethyl-1H-imidazo[4,5-c]pyridin-2-yl)-5-[1-(difluoromethyl)-1H-pyrazol-3-yl]-1,6-naphthyridin-2(1H)-one methanesulfonate] | 3.6 nM | 66 nM | – |
| CCc1nc(Cl)cc2[nH]c(-c3cc4c(-c5cc(C)n(C)n5)nccc4[nH]c3=O)nc12 [Example 151, 3-(6-chloro-4-ethyl-1H-imidazo[4,5-c]pyridin-2-yl)-5-(1,5-dimethyl-1H-pyrazol-3-yl)-1,6-naphthyridin-2(1H)-one methanesulfonate] | 1.5 nM | 16 nM | – |
